Experimental data reported in publication PMC9763329, “Targeting the transcription factor HES1 by L-menthol restores protein phosphatase 6 in keratinocytes in models of psoriasis” (Nature Communications, 2022).
pKd: −log10 of the molar value.

Assays:
[1] = target: T1, HES1 (transcription factor hairy and enhancer of split 1) (Homo sapiens, UniProt Q14469); assay: microscale thermophoresis (Monolith NT.[…]); format: binding
T1 construct: Human HES1 in pET-28a(+), C-terminal 6xHis tag kept, E. coli BL21(DE3), nickel and size-exclusion purified
T1 sequence (Q14469 1-280): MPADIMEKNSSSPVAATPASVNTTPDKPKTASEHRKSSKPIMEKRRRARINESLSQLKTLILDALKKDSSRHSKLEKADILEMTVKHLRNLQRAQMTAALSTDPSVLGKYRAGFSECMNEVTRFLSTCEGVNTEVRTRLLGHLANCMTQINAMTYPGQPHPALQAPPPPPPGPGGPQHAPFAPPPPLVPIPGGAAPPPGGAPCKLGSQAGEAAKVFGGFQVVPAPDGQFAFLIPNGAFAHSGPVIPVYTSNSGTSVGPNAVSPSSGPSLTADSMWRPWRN

Hes1 = target: T2, Hes1 (Mus musculus, UniProt P35428); assay: DARTS (pronase protection, anti-HES1 immunoblot); format: biochemical; settings: primary mouse keratinocyte lysate; 30 min L-menthol then 20 min pronase, room temperature
T2 construct: endogenous Hes1 in primary mouse keratinocyte lysate, detected by anti-HES1 immunoblot
T2 sequence (P35428 1-282): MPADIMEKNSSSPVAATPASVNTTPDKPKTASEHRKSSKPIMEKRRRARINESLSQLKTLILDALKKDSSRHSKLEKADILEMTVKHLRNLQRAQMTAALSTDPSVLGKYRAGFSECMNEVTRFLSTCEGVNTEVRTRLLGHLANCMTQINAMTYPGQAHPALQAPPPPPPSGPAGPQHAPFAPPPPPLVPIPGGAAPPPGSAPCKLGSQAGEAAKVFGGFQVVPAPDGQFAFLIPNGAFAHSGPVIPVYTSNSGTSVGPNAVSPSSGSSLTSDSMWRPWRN

pKd [1]: 7.77
SMILES: CC(C)[C@@H]1CC[C@@H](C)C[C@H]1O [L-menthol]
DARTS (pronase protection, anti-HES1 immunoblot) (Hes1): interaction between HES1 and L-menthol was verified in HaCaT cells
